Key:
Assay type in all cases: in vivo
[1] = tested on: Cloquintocet-mexyl seed-treated Winter Wheat (variety ‘Hereward’); assay: Test 1B glasshouse assay, post-emergence phytotoxicity on winter wheat whose seed has been treated with cloquintocet-mexyl; details: Triticum aestivum, 312 h, seed treated with cloquintocet-mexyl 0.5 g/kg dry seed, 13 days after application, read-out: Post-Emergence Herbicidal Activity (% Phytotoxicity) Cloquintocet-mexyl seed-treated Winter Wheat (variety ‘Hereward’)
Description: Seeds of the Winter Wheat variety ‘Hereward’ were seed treated with a wettable powder formulation of the cereal herbicide safener, cloquintocet-mexyl, at a rate of 0.5 grams per kilogram of dry seed, prior to the initiation of glasshouse testing. Three seeds were sown per 1.5 inch plastic pot into a standard soil (usually sandy soil) at a depth of 1 cm, prior to application of the test compounds and were watered and grown under controlled conditions in a glasshouse (at 24/16° C., day/night; 14 hours light; 65% humidity). After 8 days cultivation under these controlled conditions, the plants were sprayed post-emergence with an aqueous spray solution derived from the formulation of the technical active ingredient (compound) in acetone/water (50:50) solution containing 0.5% Tween 20 (polyoxyethylene sorbitan monolaurate, CAS RN 9005-64-5). The test plants were then grown on in a glasshouse under controlled conditions (at 24/16° C., day/night; 14 hours light; 65% humidity) and watered twice daily. 13 days after application of the test compounds, the test was evaluated visually for percentage phytotoxicity to each plant (where 100%=total damage to plant; 0%=no damage to plant).

[2] = tested on: Triticum aestivum (TRZAW, winter wheat); assay: Test 1A glasshouse assay, pre-emergence herbicidal activity; details: 312 h, 13 days after application, read-out: Pre-Emergence Herbicidal Activity (% Phytotoxicity) TRZAW
Description: (§1) Seeds of a variety of test species are sown in standard soil (usually sandy soil) in pots. After cultivation for one day (pre-emergence) or after 8 days cultivation (post-emergence) under controlled conditions in a glasshouse (at 24/16° C., day/night; 14 hours light; 65% humidity), the plants are sprayed with an aqueous spray solution derived from the formulation of the technical active ingredient (compound) in acetone/water (50:50) solution containing 0.5% Tween 20 (polyoxyethylene sorbitan monolaurate, CAS RN 9005-64-5). The test plants are then grown under controlled conditions in a glasshouse (at 24/16° C., day/night; 14 hours light; 65% humidity) and watered twice daily. 13 days after application of the test compounds, for pre- and post-emergence, the test is evaluated visually for percentage phytotoxicity to each plant (where 100%=total damage to plant; 0%=no damage to plant).
(§2) Lolium perenne (LOLPE), Triticum aestivum (TRZAW, winter wheat), Alopecurus myosuroides (ALOMY), Echinochloa crus-galli (ECHCG), and Avena fatua (AVEFA). All these are grassy monocotyledonous weeds and/or (for wheat) grassy crops.

Lolium perenne (LOLPE) = assay: as above; details: 312 h, 13 days after application, read-out: Pre-Emergence Herbicidal Activity (% Phytotoxicity) LOLPE
Description: as §1, §2

Avena fatua (AVEFA) [3] = assay: as above; details: 312 h, 13 days after application, read-out: Pre-Emergence Herbicidal Activity (% Phytotoxicity) AVEFA
Description: as §1, §2

[4] = tested on: Winter Wheat (variety ‘Hereward’); assay: Test 1B glasshouse assay, post-emergence phytotoxicity on winter wheat; details: Triticum aestivum, 312 h, 13 days after application, read-out: Post-Emergence Herbicidal Activity (% Phytotoxicity) Winter Wheat (variety ‘Hereward’)
Description: Seeds of the Winter Wheat variety ‘Hereward’ were sown in standard soil (usually sandy soil) in pots. After 8 days cultivation under controlled conditions in a glasshouse (at 24/16° C., day/night; 14 hours light; 65% humidity), which is post-emergence, the plants were sprayed with an aqueous spray solution derived from the formulation of the technical active ingredient (compound) in acetone/water (50:50) solution containing 0.5% Tween 20 (polyoxyethylene sorbitan monolaurate, CAS RN 9005-64-5). The test plants were then grown on in a glasshouse under controlled conditions (at 24/16° C., day/night; 14 hours light; 65% humidity) and watered twice daily. 13 days after application of the test compounds, the test was evaluated visually for percentage phytotoxicity to each plant (where 100%=total damage to plant; 0%=no damage to plant).

Avena fatua (AVEFA) [5] = assay: Test 1A glasshouse assay, post-emergence herbicidal activity; details: 312 h, 13 days after application, read-out: Post-Emergence Herbicidal Activity (% Phytotoxicity) AVEFA
Description: as §1
Lolium perenne (LOLPE), Triticum aestivum (TRZAW, winter wheat, variety ‘Hereward’), Alopecurus myosuroides (ALOMY), Echinochloa crus-galli (ECHCG), and Avena fatua (AVEFA). All these are grassy monocotyledonous weeds and/or (for wheat) grassy crops.

CC#Cc1cc(C)c(C2C(=O)C(Cc3ccccn3)N(C)C2=O)c(C)c1 (stereo not drawn) [Compound A50, 3-(2,6-dimethyl-4-prop-1-ynyl-phenyl)-1-methyl-5-(2-pyridylmethyl)pyrrolidine-2,4-dione]
inhibition at 15.625 g/ha ([1]; 15.625 g/ha): 0%
inhibition at 62.5 g/ha ([1]; 62.5 g/ha): 40%
inhibition at 250 g/ha ([1]; 250 g/ha): 60%
inhibition at 62.5 g/ha ([2]; 62.5 g/ha): 70%
inhibition at 250 g/ha ([2]; 250 g/ha): 90%
inhibition at 62.5 g/ha (Lolium perenne (LOLPE); 62.5 g/ha): 70%
inhibition at 250 g/ha (Lolium perenne (LOLPE); 250 g/ha): 100%
inhibition at 62.5 g/ha (Avena fatua (AVEFA) [3]; 62.5 g/ha): 60%
inhibition at 250 g/ha (Avena fatua (AVEFA) [3]; 250 g/ha): 70%
inhibition at 15.625 g/ha ([4]; 15.625 g/ha): 30%
inhibition at 62.5 g/ha ([4]; 62.5 g/ha): 70%
inhibition at 250 g/ha ([4]; 250 g/ha): 80%
inhibition at 15.625 g/ha (Avena fatua (AVEFA) [5]; 15.625 g/ha): 50%
inhibition at 62.5 g/ha (Avena fatua (AVEFA) [5]; 62.5 g/ha): 70%
inhibition at 250 g/ha (Avena fatua (AVEFA) [5]; 250 g/ha): 100%

— patent US20160219881A1, “HERBICIDALLY ACTIVE 2-HALOGEN-4-ALKYNYL-PHENYL-PYRAZOLIDINE-DIONE OR PYRROLIDINE-DIONE DERIVATIVES” (SYNGENTA LIMITED, priority 2013, published 2016)
